# Results taken from article PMC4620497 (Scientific Reports, 2015).
# Experiments:
# CHEK1 = molecular target: T1, CHEK1 (Homo sapiens, UniProt O14757); set-up: method as in earlier work; settings: Table S1; cited from earlier work
# T1 construct: purchased DiscoveRx KINOMEscan (Ambit Biosciences)
# T1 sequence (O14757 1-476): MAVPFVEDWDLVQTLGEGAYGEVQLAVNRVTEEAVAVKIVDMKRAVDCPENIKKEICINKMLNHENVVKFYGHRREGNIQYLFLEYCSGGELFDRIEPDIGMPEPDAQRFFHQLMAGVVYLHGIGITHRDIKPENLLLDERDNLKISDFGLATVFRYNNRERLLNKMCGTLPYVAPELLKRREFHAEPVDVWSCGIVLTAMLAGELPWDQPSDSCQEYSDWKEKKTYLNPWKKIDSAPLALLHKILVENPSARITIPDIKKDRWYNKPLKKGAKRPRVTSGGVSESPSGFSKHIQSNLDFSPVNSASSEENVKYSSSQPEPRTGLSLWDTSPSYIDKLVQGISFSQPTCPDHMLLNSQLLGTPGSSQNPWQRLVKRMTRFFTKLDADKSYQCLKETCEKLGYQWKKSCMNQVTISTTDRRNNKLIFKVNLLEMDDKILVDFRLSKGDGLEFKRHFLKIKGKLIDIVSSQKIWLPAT
# NEK3 = molecular target: T2, NEK3 (Homo sapiens, UniProt P51956); assay: KINOMEscan panel screen; type: binding; settings: read-out: Percent Control(%)
# T2 construct: purchased DiscoveRx KINOMEscan (Ambit Biosciences)
# MTOR = molecular target: T3, MTOR (Homo sapiens, UniProt P42345); assay: KINOMEscan panel screen; type: binding; settings: read-out: Percent Control(%)
# T3 construct: purchased DiscoveRx KINOMEscan (Ambit Biosciences)
# [1] = molecular target: T4, ABL1(T315I)-nonphosphorylated (Homo sapiens, UniProt P00519, T315I); assay: KINOMEscan panel screen; type: binding; settings: read-out: Percent Control(%)
# T4 construct: purchased DiscoveRx KINOMEscan (Ambit Biosciences)
# CAMK2B = molecular target: T5, CAMK2B (Homo sapiens, UniProt Q13554); assay: KINOMEscan panel screen; type: binding; settings: read-out: Percent Control(%)
# T5 construct: purchased DiscoveRx KINOMEscan (Ambit Biosciences)
# SGK3 = molecular target: T6, SGK3 (Homo sapiens, UniProt Q96BR1); assay: KINOMEscan panel screen; type: binding; settings: read-out: Percent Control(%)
# T6 construct: purchased DiscoveRx KINOMEscan (Ambit Biosciences)
# T6 sequence (Q96BR1 whole entry): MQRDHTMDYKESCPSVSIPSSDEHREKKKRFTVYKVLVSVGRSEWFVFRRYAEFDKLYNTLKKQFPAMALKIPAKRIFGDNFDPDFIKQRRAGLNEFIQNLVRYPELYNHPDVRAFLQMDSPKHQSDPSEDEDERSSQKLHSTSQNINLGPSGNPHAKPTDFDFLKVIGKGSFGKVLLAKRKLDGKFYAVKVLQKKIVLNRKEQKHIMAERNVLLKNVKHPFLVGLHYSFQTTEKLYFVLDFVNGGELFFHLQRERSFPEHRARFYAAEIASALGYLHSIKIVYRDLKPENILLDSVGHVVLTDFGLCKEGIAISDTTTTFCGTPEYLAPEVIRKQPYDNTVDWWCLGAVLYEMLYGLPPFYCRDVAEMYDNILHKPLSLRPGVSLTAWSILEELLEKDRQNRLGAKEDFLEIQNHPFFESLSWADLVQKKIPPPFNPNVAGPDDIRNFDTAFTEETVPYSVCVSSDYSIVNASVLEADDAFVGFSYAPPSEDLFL
# PKN1 = molecular target: T7, PKN1 (Homo sapiens, UniProt Q16512); assay: KINOMEscan panel screen; type: binding; settings: read-out: Percent Control(%)
# T7 construct: purchased DiscoveRx KINOMEscan (Ambit Biosciences)
# CDKL1 = molecular target: T8, CDKL1 (Homo sapiens, UniProt Q00532); assay: KINOMEscan panel screen; type: binding; settings: read-out: Percent Control(%)
# T8 construct: purchased DiscoveRx KINOMEscan (Ambit Biosciences)
# MLCK = molecular target: T9, MLCK (Homo sapiens, UniProt Q32MK0); assay: KINOMEscan panel screen; type: binding; settings: read-out: Percent Control(%)
# T9 construct: purchased DiscoveRx KINOMEscan (Ambit Biosciences)
# PDGFRα = molecular target: T10, PDGFRα (Homo sapiens, UniProt P16234); assay: KINOMEscan kinase binding assay (Kd)
# T10 construct: purchased Ambit Biosciences (KINOMEscan)
# MEK3 = molecular target: T11, MEK3 (Homo sapiens, UniProt P46734); assay: KINOMEscan panel screen; type: binding; settings: read-out: Percent Control(%)
# T11 construct: purchased DiscoveRx KINOMEscan (Ambit Biosciences)
# PAK6 = molecular target: T12, PAK6 (Homo sapiens, UniProt Q9NQU5); assay: KINOMEscan panel screen; type: binding; settings: read-out: Percent Control(%)
# T12 construct: purchased DiscoveRx KINOMEscan (Ambit Biosciences)
# VEGFR2 = molecular target: T13, VEGFR2 (Homo sapiens, UniProt P35968); assay: KINOMEscan panel screen; type: binding; settings: read-out: Percent Control(%)
# T13 construct: DNA tag (qPCR read-out); purchased Ambit Biosciences (KINOMEscan service)
# PLC/PRF/5 = assay: MTT cell viability assay; settings: Homo sapiens, PLC-PRF-5, 72 h
# PAK7 = molecular target: T14, PAK7 (Homo sapiens, UniProt Q9P286); assay: KINOMEscan panel screen; type: binding; settings: read-out: Percent Control(%)
# T14 construct: purchased DiscoveRx KINOMEscan (Ambit Biosciences)
# HASPIN = molecular target: T15, HASPIN (Homo sapiens, UniProt Q8TF76); assay: KINOMEscan panel screen; type: binding; settings: read-out: Percent Control(%)
# T15 construct: purchased DiscoveRx KINOMEscan (Ambit Biosciences)
# T15 sequence (Q8TF76 whole entry): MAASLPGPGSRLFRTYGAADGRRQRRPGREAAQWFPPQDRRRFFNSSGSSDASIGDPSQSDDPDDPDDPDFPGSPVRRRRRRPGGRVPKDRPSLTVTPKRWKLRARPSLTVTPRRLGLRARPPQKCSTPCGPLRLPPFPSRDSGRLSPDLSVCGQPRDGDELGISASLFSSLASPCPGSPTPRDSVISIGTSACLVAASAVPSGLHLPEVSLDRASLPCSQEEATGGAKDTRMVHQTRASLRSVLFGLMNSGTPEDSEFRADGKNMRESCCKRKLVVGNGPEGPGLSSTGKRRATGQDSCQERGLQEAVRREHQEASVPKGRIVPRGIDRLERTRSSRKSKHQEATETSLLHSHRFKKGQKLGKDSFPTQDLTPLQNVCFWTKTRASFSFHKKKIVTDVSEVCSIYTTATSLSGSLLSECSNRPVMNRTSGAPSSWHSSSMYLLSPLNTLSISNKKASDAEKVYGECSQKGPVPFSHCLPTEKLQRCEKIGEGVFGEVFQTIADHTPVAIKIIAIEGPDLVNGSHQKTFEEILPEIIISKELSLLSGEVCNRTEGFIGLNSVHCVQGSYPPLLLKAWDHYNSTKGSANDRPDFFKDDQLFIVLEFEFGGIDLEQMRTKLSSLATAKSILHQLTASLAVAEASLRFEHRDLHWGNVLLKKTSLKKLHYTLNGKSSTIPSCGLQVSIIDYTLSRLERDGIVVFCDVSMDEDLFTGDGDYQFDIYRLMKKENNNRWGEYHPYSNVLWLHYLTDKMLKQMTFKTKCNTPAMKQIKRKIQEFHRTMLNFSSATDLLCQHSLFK
# EGFR(G719S) = molecular target: T16, EGFR(G719S) (Homo sapiens, UniProt P00533, G719S); assay: KINOMEscan panel screen; type: binding; settings: read-out: Percent Control(%)
# T16 construct: purchased DiscoveRx KINOMEscan (Ambit Biosciences)
# GRK1 = molecular target: T17, GRK1 (Homo sapiens, UniProt Q15835); assay: KINOMEscan panel screen; type: binding; settings: read-out: Percent Control(%)
# T17 construct: purchased DiscoveRx KINOMEscan (Ambit Biosciences)
# T17 sequence (Q15835 whole entry): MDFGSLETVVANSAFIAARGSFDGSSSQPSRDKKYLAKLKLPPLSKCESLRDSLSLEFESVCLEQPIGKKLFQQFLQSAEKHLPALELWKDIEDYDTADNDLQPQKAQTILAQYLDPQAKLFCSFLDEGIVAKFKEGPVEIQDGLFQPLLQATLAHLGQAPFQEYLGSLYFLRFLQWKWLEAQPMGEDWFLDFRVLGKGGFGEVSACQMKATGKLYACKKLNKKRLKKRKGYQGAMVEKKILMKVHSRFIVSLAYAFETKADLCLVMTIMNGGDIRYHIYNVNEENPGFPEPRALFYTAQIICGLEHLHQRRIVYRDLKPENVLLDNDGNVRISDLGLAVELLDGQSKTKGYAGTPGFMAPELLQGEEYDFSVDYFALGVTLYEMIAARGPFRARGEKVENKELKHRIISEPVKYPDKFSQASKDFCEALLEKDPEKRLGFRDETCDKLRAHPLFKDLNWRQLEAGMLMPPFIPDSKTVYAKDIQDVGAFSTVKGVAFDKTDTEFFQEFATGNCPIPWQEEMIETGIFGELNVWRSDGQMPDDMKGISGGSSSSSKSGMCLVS
# ALK(C1156Y) = molecular target: T18, ALK(C1156Y) (Homo sapiens, UniProt Q9UM73, C1156Y); assay: KINOMEscan panel screen; type: binding; settings: read-out: Percent Control(%)
# T18 construct: purchased DiscoveRx KINOMEscan (Ambit Biosciences)
# TRKA = molecular target: T19, TRKA (Homo sapiens, UniProt P04629); assay: KINOMEscan panel screen; type: binding; settings: read-out: Percent Control(%)
# T19 construct: purchased DiscoveRx KINOMEscan (Ambit Biosciences)
# T19 sequence (P04629 33-796): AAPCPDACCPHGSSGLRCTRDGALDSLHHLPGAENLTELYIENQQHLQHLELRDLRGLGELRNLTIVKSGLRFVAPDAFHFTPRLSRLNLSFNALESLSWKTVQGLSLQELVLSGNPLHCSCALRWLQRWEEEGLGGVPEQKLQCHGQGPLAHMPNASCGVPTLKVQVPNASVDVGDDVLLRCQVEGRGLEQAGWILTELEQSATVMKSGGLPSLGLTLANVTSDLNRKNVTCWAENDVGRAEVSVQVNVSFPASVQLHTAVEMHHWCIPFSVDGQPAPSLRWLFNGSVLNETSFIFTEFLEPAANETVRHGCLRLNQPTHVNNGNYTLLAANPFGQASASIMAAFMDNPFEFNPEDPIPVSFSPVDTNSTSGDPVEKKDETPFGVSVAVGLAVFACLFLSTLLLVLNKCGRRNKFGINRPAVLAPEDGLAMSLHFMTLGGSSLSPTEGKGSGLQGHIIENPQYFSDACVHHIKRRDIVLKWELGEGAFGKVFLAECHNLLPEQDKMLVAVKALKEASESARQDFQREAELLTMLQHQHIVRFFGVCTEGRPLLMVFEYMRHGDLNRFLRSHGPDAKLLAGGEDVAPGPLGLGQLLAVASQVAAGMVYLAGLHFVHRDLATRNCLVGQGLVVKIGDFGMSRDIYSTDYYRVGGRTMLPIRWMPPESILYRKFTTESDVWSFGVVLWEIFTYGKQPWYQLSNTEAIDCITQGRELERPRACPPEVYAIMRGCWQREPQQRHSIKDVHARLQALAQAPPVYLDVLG
# RIOK3 = molecular target: T20, RIOK3 (Homo sapiens, UniProt O14730); assay: KINOMEscan panel screen; type: binding; settings: read-out: Percent Control(%)
# T20 construct: purchased DiscoveRx KINOMEscan (Ambit Biosciences)
# NEK11 = molecular target: T21, NEK11 (Homo sapiens, UniProt Q8NG66); assay: KINOMEscan panel screen; type: binding; settings: read-out: Percent Control(%)
# T21 construct: purchased DiscoveRx KINOMEscan (Ambit Biosciences)
# T21 sequence (Q8NG66 whole entry): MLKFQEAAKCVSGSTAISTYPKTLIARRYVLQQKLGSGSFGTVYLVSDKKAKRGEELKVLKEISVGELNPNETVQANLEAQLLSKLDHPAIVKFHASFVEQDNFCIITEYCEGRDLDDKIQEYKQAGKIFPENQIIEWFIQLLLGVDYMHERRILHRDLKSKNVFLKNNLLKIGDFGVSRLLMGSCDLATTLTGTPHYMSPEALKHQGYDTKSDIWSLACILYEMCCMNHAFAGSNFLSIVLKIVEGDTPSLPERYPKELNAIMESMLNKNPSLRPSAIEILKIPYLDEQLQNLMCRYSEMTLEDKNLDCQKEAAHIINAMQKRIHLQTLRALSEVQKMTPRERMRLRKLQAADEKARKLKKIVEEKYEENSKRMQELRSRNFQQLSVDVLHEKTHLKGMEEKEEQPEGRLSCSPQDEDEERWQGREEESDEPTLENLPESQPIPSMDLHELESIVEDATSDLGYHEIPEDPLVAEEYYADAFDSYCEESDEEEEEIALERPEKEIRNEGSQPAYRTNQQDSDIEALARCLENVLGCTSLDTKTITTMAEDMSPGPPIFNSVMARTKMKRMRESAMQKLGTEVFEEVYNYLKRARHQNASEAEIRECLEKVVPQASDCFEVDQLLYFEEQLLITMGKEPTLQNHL
# TIE2 = molecular target: T22, TIE2 (Homo sapiens, UniProt Q02763); assay: KINOMEscan kinase binding assay (Kd)
# T22 construct: purchased DiscoveRx KINOMEscan (Ambit Biosciences)
# CSNK2A2 = molecular target: T23, CSNK2A2 (Homo sapiens, UniProt P19784); assay: KINOMEscan panel screen; type: binding; settings: read-out: Percent Control(%)
# T23 construct: purchased DiscoveRx KINOMEscan (Ambit Biosciences)
# PIP5K1A = molecular target: T24, PIP5K1A (Homo sapiens, UniProt Q99755); assay: KINOMEscan panel screen; type: binding; settings: read-out: Percent Control(%)
# T24 construct: purchased DiscoveRx KINOMEscan (Ambit Biosciences)
# DCAMKL3 = molecular target: T25, DCAMKL3 (Homo sapiens, UniProt Q9C098); assay: KINOMEscan panel screen; type: binding; settings: read-out: Percent Control(%)
# T25 construct: purchased DiscoveRx KINOMEscan (Ambit Biosciences)
# SBK1 = molecular target: T26, SBK1 (Homo sapiens, UniProt Q52WX2); assay: KINOMEscan panel screen; type: binding; settings: read-out: Percent Control(%)
# T26 construct: purchased DiscoveRx KINOMEscan (Ambit Biosciences)
# T26 sequence (Q52WX2 whole entry): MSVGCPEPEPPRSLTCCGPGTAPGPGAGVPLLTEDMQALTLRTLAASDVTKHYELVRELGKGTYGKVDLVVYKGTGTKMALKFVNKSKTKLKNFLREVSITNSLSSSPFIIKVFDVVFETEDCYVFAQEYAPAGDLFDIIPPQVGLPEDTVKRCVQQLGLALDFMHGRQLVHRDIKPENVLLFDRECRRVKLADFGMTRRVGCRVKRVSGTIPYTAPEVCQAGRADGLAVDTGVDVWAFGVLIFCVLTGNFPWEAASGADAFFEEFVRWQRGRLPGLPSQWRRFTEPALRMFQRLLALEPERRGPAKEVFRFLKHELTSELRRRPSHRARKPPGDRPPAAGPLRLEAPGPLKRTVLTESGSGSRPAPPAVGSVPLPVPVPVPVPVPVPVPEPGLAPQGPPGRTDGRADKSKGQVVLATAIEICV
# KIT = molecular target: T27, KIT (Homo sapiens, UniProt P10721); assay: KINOMEscan kinase binding assay (Kd)
# T27 construct: DNA tag (qPCR read-out); purchased Ambit Biosciences (KINOMEscan service)
# EPHB6 = molecular target: T28, EPHB6 (Homo sapiens, UniProt O15197); assay: KINOMEscan panel screen; type: binding; settings: read-out: Percent Control(%)
# T28 construct: purchased DiscoveRx KINOMEscan (Ambit Biosciences)
# TSSK1B = molecular target: T29, TSSK1B (Homo sapiens, UniProt Q9BXA7); assay: KINOMEscan panel screen; type: binding; settings: read-out: Percent Control(%)
# T29 construct: purchased DiscoveRx KINOMEscan (Ambit Biosciences)
# ABL2 = molecular target: T30, ABL2 (Homo sapiens, UniProt P42684); assay: KINOMEscan panel screen; type: binding; settings: read-out: Percent Control(%)
# T30 construct: purchased DiscoveRx KINOMEscan (Ambit Biosciences)
# T30 sequence (P42684 whole entry): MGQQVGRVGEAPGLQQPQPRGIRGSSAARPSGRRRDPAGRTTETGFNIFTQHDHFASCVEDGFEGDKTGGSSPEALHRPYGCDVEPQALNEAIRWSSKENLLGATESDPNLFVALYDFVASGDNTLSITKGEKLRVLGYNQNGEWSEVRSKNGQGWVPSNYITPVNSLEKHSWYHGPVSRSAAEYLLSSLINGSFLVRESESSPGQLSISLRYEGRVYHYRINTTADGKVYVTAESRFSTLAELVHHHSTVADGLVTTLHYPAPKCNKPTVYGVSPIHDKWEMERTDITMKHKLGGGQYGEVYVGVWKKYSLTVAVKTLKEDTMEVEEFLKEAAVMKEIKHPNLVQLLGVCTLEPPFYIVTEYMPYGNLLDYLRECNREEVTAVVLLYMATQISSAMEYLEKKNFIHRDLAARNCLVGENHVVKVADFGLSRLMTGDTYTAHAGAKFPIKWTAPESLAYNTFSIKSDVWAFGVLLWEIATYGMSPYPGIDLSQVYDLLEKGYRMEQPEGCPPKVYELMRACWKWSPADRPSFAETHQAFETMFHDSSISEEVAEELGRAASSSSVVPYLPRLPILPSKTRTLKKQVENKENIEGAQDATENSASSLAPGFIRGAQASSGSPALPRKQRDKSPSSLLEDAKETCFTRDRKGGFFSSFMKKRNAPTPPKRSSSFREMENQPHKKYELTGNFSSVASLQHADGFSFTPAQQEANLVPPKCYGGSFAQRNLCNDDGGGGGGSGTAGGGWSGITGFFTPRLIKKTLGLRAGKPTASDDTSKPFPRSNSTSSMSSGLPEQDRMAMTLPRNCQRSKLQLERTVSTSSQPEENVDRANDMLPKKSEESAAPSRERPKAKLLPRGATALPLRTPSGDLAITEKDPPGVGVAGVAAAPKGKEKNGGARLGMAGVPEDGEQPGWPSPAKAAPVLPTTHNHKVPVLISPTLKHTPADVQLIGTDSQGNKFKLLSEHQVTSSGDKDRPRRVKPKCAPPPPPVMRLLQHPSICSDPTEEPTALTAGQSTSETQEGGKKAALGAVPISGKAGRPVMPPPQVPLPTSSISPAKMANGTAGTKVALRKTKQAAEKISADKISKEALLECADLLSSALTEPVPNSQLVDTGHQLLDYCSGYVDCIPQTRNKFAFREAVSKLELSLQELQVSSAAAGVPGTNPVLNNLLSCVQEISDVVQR
# CAMKK2 = molecular target: T31, CAMKK2 (Homo sapiens, UniProt Q96RR4); assay: KINOMEscan panel screen; type: binding; settings: read-out: Percent Control(%)
# T31 construct: purchased DiscoveRx KINOMEscan (Ambit Biosciences)
# HUNK = molecular target: T32, HUNK (Homo sapiens, UniProt P57058); assay: KINOMEscan panel screen; type: binding; settings: read-out: Percent Control(%)
# T32 construct: purchased DiscoveRx KINOMEscan (Ambit Biosciences)
# FRK = molecular target: T33, FRK (Homo sapiens, UniProt P42685); assay: KINOMEscan panel screen; type: binding; settings: read-out: Percent Control(%)
# T33 construct: purchased DiscoveRx KINOMEscan (Ambit Biosciences)
# NEK10 = molecular target: T34, NEK10 (Homo sapiens, UniProt Q6ZWH5); assay: KINOMEscan panel screen; type: binding; settings: read-out: Percent Control(%)
# T34 construct: purchased DiscoveRx KINOMEscan (Ambit Biosciences)
# [2] = molecular target: T35, ABL1(F317L)-phosphorylated (Homo sapiens, UniProt P00519, F317L); assay: KINOMEscan panel screen; type: binding; settings: read-out: Percent Control(%)
# T35 construct: purchased DiscoveRx KINOMEscan (Ambit Biosciences)
compound,measurement,setting,value
"O=C(Nc1ccc(Oc2ncnc3[nH]ncc23)cc1)Nc1ccc(Cl)c(C(F)(F)F)c1 [Compound 1, 1-(4-(1H-pyrazolo[3,4-d]pyrimidin-4-yloxy)phenyl)-3-(4-chloro-3-(trifluoromethyl)phenyl)urea]",IC50,CHEK1,> 10000 nM
"CC(C)(C)c1cc(NC(=O)Nc2ccc(Oc3ncnc4[nH]ncc34)c(F)c2)no1 [SKLB-677, 1-(4-(1H-pyrazolo[3,4-d]pyrimidin-4-yloxy)-3-fluorophenyl)-3-(5-tert-butylisoxazol-3-yl)urea]",remaining binding at 10 µM,NEK3,41%
same,remaining binding at 10 µM,MTOR,100%
same,remaining binding at 10 µM,[1],3%
same,remaining binding at 10 µM,CAMK2B,77%
same,remaining binding at 10 µM,SGK3,46%
same,remaining binding at 10 µM,PKN1,82%
same,remaining binding at 10 µM,CDKL1,3.3%
same,remaining binding at 10 µM,MLCK,58%
same,Kd,PDGFRα,12 nM
same,remaining binding at 10 µM,MEK3,63%
same,remaining binding at 10 µM,PAK6,90%
same,remaining binding at 10 µM,VEGFR2,0.1%
same,IC50,PLC/PRF/5,> 10000 nM
same,remaining binding at 10 µM,PAK7,100%
same,remaining binding at 10 µM,HASPIN,42%
same,remaining binding at 10 µM,EGFR(G719S),47%
same,remaining binding at 10 µM,GRK1,97%
same,remaining binding at 10 µM,ALK(C1156Y),17%
same,remaining binding at 10 µM,TRKA,7.8%
same,remaining binding at 10 µM,RIOK3,100%
same,remaining binding at 10 µM,NEK11,96%
same,Kd,TIE2,99 nM
same,remaining binding at 10 µM,CSNK2A2,71%
same,remaining binding at 10 µM,PIP5K1A,22%
same,remaining binding at 10 µM,DCAMKL3,81%
same,remaining binding at 10 µM,SBK1,80%
same,Kd,KIT,3.1 nM
same,remaining binding at 10 µM,EPHB6,2%
same,remaining binding at 10 µM,TSSK1B,100%
same,remaining binding at 10 µM,ABL2,13%
same,remaining binding at 10 µM,CAMKK2,30%
same,remaining binding at 10 µM,HUNK,80%
same,remaining binding at 10 µM,FRK,0%
same,remaining binding at 10 µM,NEK10,93%
same,remaining binding at 10 µM,[2],13%
